Reference: paper doi:10.1101/2022.03.11.483894v1, “Structure and function of diadenylate cyclase DacM from Mycoplasma ovipneumoniae” (biorxiv, 2022)

Molecular target: T1, DacM (Δ2-33DacM; DacM (35-203)) (Mesomycoplasma ovipneumoniae, UniProt A0A014M399)
T1 construct: gene MOVI_0530; N-terminal transmembrane helix removed (Δ2-33); codon-optimized gene in pET28b, E. coli BL21(DE3), N-terminal His6 fusion; homodimer in crystal
T1 sequence (A0A014M399 35-203): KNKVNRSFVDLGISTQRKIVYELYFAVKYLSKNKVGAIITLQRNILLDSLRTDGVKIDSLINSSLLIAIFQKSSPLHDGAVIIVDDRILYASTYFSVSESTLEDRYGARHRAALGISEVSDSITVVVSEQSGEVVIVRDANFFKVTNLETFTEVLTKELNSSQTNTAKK
Assay: X-ray crystal structure of complex, […] Å; also LC-MS detection of c-di-AMP formation
Type: binding
Details: activity assay: 2 μM enzyme, 10 mM MgCl2, Tris-HCl pH 7.5, 37 °C, 1 h

Row | Structure (SMILES) | X-ray crystal structure of complex, 1.9 Å; also LC-MS detection of c-di-AMP form (crystal grown with ATP as additive, 16 °C, HEPES pH 7.5, active site of protomer B, 0.1 mM ADP) | X-ray crystal structure of complex, 1.9 Å; also LC-MS detection of c-di-AMP form (crystal: 16 °C, HEPES pH 7.5, active site of protomer A, 0.1 mM ATP)
1 | Nc1ncnc2c1ncn2[C@@H]1O[C@H](COP(=O)(O)OP(=O)(O)O)[C@@H](O)[C@H]1O [ADP] | active site of the second DacM protomer (protomer B), was consistent with a bound molecule of ADP | 
2 | Nc1ncnc2c1ncn2[C@@H]1O[C@H](COP(=O)(O)OP(=O)(O)OP(=O)(O)O)[C@@H](O)[C@H]1O [ATP] |  | an ATP molecule, which was clearly bound in the active site of one DacM protomer
